From patent US8263606B2 (Xenon Pharmaceuticals Inc., priority 2008, dated 2012) come the findings set out here.

One data set deals with sodium channel. Briefly: Guanidine influx assay (14C-guanidine radiotracer flux, in vitro). In kind it is cell-based, human or rat. The settings on record: guanidine influx assay using a known cell line that expresses a sodium channel; activity level class. In short, it runs like this:
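Sodium channel block is measured as reduced 14C-guanidine uptake in cells stably expressing human or rat channels, stimulated with aconitine. Potency is given as IC50 from a four-parameter curve.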

The next data set has as its target CYP3A4 (Homo sapiens, UniProt P08684). The experiment in a line: Cytochrome P450 (CYP450) Inhibition Assay, CYP3A4 (Vivid fluorescence, BOMCC substrate). The following applies: human, P450 Baculosomes (recombinant CYP3A4), probe BOMCC (Vivid substrate).

Sequence of CYP3A4 (P08684 whole entry): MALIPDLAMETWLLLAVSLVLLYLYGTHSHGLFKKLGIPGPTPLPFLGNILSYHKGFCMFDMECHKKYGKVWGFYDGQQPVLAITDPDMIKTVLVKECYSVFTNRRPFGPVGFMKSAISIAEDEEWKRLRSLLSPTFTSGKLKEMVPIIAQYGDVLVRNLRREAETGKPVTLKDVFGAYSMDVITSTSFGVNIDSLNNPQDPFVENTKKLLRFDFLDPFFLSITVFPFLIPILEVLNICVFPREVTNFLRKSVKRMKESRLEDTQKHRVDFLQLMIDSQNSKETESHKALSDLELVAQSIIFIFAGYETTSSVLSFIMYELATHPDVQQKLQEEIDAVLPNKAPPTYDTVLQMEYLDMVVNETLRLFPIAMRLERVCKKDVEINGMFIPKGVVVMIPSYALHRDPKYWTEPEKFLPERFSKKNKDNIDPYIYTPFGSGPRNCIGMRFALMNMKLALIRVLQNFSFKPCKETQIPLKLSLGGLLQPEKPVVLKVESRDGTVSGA

For orientation: IC50 means the concentration at which inhibition is half-maximal. A word on the melting point: it is the temperature, or range, at which the solid turns liquid. Usually inhibition stands for the share of the control response that was lost under treatment. Compound `CC(C)c1ncc(CN2C(=O)C3(COc4cc5c(cc43)OCO5)c3ccccc32)o1` (stereo not drawn) [Example 4.77, 1′-[(2-isopropyl-1,3-oxazol-5-yl)methyl]spiro[furo[2,3-f][1,3]benzodioxole-7,3′-indol]-2′(1′H)-one] displayed a melting point of 75 to 77 °C. Further, the IC50 with sodium channel was in the range of 1 to 100 nM. In addition, the inhibition at 10 µM at CYP3A4 was greater than 50%.

The compound `CSc1ccc(CN2C(=O)C3(COc4cc5c(cc43)OCO5)c3ccccc32)cc1` (stereo not drawn) [Example 4.79, 1′-[4-(methylsulfanyl)benzyl]spiro[furo[2,3-f][1,3]benzodioxole-7,3′-indol]-2′(1′H)-one] gave a melting point of 128 to 130 °C. Also, in the data set on sodium channel, the IC50 lay in the range of 1 to 100 nM. The inhibition at 10 µM at CYP3A4 is greater than 50%.

As for `N#CCCN1C(=O)C2(COc3cc4c(cc32)OCO4)c2ccccc21` (stereo not drawn) [Example 4.80, 3-(2′-oxospiro[furo[2,3-f][1,3]benzodioxole-7,3′-indol]-1′(2′H)-yl)propanenitrile], the melting point was in the range of 200 to 202 °C. The IC50 in the data set with sodium channel lay in the range of 1 to 100 nM. For the same compound, the inhibition at 10 µM at CYP3A4 is greater than 50%.

Compound `O=C1N(Cc2cnc(Br)s2)c2ccccc2C12COc1cc3c(cc12)OCO3` (stereo not drawn) [Example 4.81, 1′-[(2-bromo-1,3-thiazol-5-yl)methyl]spiro[furo[2,3-f][1,3]benzodioxole-7,3′-indol]-2′(1′H)-one] returned a melting point of 215 to 217 °C. In addition, the IC50 in the data set on sodium channel was 1 to 100 nM. Besides, the inhibition at 10 µM at CYP3A4 is greater than 50%.

In turn, `Nc1nc(C(F)(F)F)c(CN2C(=O)C3(COc4cc5c(cc43)OCO5)c3ccccc32)s1` (stereo not drawn) [Example 4.82, 1′-{[2-amino-4-(trifluoromethyl)-1,3-thiazol-5-yl]methyl}spiro[furo[2,3-f][1,3]benzodioxole-7,3′-indol]-2′(1′H)-one] had a melting point of 165 to 167 °C. In addition, in the data set with sodium channel, the IC50 fell in the range of 100 to 1000 nM. The inhibition at 10 µM on CYP3A4 was greater than 50%.

Turning to `COc1cc2c(cc1F)OCC21C(=O)N(Cc2ccc(C(F)(F)F)o2)c2ccccc21` (stereo not drawn) [Example 4.83, 6-fluoro-5-methoxy-1′-{[5-(trifluoromethyl)furan-2-yl]methyl}spiro[1-benzofuran-3,3′-indol]-2′(1′H)-one], the melting point was 132 to 134 °C. Further, in the data set with sodium channel, the IC50 is 1000 to 10000 nM. For the same compound, the inhibition at 10 µM at CYP3A4 is greater than 50%.

Take `N#CCN1C(=O)C2(COc3cc4c(cc32)OCO4)c2c(Cl)cccc21` (stereo not drawn) [Example 4.84]: the melting point fell in the range of 122 to 123 °C. For the same compound, the IC50 with sodium channel was 100 to 1000 nM. Also, the inhibition at 10 µM at CYP3A4 was less than 50%.

Compound `Nc1nc(CN2C(=O)C3(COc4cc5c(cc43)OCO5)c3ccccc32)cs1` (stereo not drawn) [Example 4.85, 1′-[(2-amino-1,3-thiazol-4-yl)methyl]spiro[furo[2,3-f][1,3]benzodioxole-7,3′-indol]-2′(1′H)-one] had a melting point of 230 to 235 °C. Besides, in the data set with sodium channel, the IC50 was in the range of 100 to 1000 nM. In addition, at CYP3A4, the inhibition at 10 µM was greater than 50%.

Compound `O=C1N(Cc2ccc(Cl)s2)c2cccc(Br)c2C12COc1cc3c(cc12)OCO3` (stereo not drawn) [Example 4.86, 4′-bromo-1′-[1(5-chloro-2-thienyl)methyl]spiro[furo[2,3-f][1,3]benzodioxole-7,3′-indol]-2′(1′H)-one] yielded a melting point of 85 to 87 °C. The IC50 with sodium channel was in the range of 1 to 100 nM. Further, the inhibition at 10 µM at CYP3A4 was greater than 50%.

Consider `N#Cc1cccc2c1N(Cc1ccc(Cl)s1)C(=O)C21COc2cc3c(cc21)OCO3` (stereo not drawn) [Example 4.87, 1′-[(5-chloro-2-thienyl)methyl]-2′-oxo-1′,2′-dihydrospiro[furo[2,3-f][1,3]benzodioxole-7,3′-indole]-7′-carbonitrile], for which the melting point lay in the range of 192 to 193 °C. The IC50 with sodium channel lay in the range of 1 to 100 nM. Further, the inhibition at 10 µM on CYP3A4 is greater than 50%.

`CC(C)c1nc(CN2C(=O)C3(COc4cc5c(cc43)OCO5)c3cccc(C#N)c32)cs1` (stereo not drawn) [Example 4.88, 1′-[(2-isopropyl-1,3-thiazol-4-yl)methyl]-2′-oxo-1′,2′-dihydrospiro[furo[2,3-f][1,3]benzodioxole-7,3′-indole]-7′-carbonitrile] yielded a melting point of 162 to 163 °C. Moreover, the IC50 in the data set with sodium channel lay in the range of 1 to 100 nM. Further, the inhibition at 10 µM at CYP3A4 was greater than 50%.

`O=C1N(Cc2ccc(Cl)s2)c2cccc(Cl)c2C12COc1cc3c(cc12)OCO3` (stereo not drawn) [Example 4.89, 4′-chloro-1′-[(5-chloro-2-thienyl)methyl]spiro[furo[2,3-f][1,3]benzodioxole-7,3′-indol]-2′(1′H)-one] gave a melting point of 167 to 168 °C. The IC50 in the data set on sodium channel is 1 to 100 nM. The inhibition at 10 µM at CYP3A4 is greater than 50%.

On to `CC(C)c1nc(CN2C(=O)C3(COc4cc5c(cc43)OCO5)c3c(Cl)cccc32)cs1` (stereo not drawn) [Example 4.91, 4′-chloro-1′-[(2-isopropyl-1,3-thiazol-4-yl)methyl]spiro[furo[2,3-f][1,3]benzodioxole-7,3′-indol]-2′(1′H)-one], for which the melting point was in the range of 147 to 148 °C. The IC50 with sodium channel was 1 to 100 nM. Also, the inhibition at 10 µM at CYP3A4 was greater than 50%.

Take `CC(C)c1nc(CN2C(=O)C3(COc4cc5c(cc43)OCO5)c3c(-c4ccc(N(C)C)nc4)cccc32)cs1` (stereo not drawn) [Example 4.92, 4′-[6-(dimethylamino)pyridin-3-yl]-1′-{[2-(1-methylethyl)-1,3-thiazol-4-yl]methyl}spiro[furo[2,3-f][1,3]benzodioxole-7,3′-indol]-2′(1′H)-one]: the melting point fell in the range of 164 to 165 °C. Further, the IC50 with sodium channel fell in the range of 100 to 1000 nM. The inhibition at 10 µM on CYP3A4 was greater than 50%.

`O=C1N(Cc2ccccc2CF)c2ccccc2C12COc1cc3c(cc12)OCCO3` (stereo not drawn) [Example 4.93] had a melting point of 188 to 190 °C. The IC50 with sodium channel was 1 to 100 nM. In addition, the inhibition at 10 µM at CYP3A4 is greater than 50%.

For the compound `N#Cc1cccc(CN2C(=O)C3(COc4cc5c(cc43)OCCO5)c3ccccc32)c1` (stereo not drawn) [Example 4.94, 3-[(2′-oxo-2,3-dihydrospiro[furo[2,3-g][1,4]benzodioxine-8,3′-indol]-1′(2′H)-yl)methyl]benzonitrile], the melting point lay in the range of 173 to 178 °C. For the same compound, the IC50 in the data set on sodium channel fell in the range of 1 to 100 nM. The inhibition at 10 µM on CYP3A4 was greater than 50%.

Compound `COc1cc(CN2C(=O)C3(COc4cc5c(cc43)OCCO5)c3ccccc32)ccc1F` (stereo not drawn) [Example 4.95, 1-(4-fluoro-3-methoxybenzyl)-2,3-dihydrospiro[furo[2,3-g][1,4]benzodioxine-8,3′-indol]-2′(1′H)-one] displayed a melting point of 161 to 163 °C. Moreover, the 50% inhibitory concentration (IC50) with sodium channel was in the range of 1 to 100 nM. For the same compound, at CYP3A4, the inhibition at 10 µM is greater than 50%.

The compound `N#Cc1ccc(CN2C(=O)C3(COc4cc5c(cc43)OCCO5)c3ccccc32)cc1` (stereo not drawn) [Example 4.96, 4-[(2′-oxo-2,3-dihydrospiro[furo[2,3-g][1,4]benzodioxine-8,3′-indol]-1′(2′H)-yl)methyl]benzonitrile] yielded a melting point of 69 to 72 °C. In addition, the IC50 in the data set with sodium channel was in the range of 1 to 100 nM. Moreover, the inhibition at 10 µM at CYP3A4 was greater than 50%.

Take `O=C1N(Cc2ccc(-c3ccno3)cc2)c2ccccc2C12COc1cc3c(cc12)OCCO3` (stereo not drawn) [Example 4.97, 1′-(4-isoxazol-5-ylbenzyl)-2,3-dihydrospiro[furo[2,3-g][1,4]benzodioxine-8,3′-indol]-2′(1′H)-one]: the melting point is 209 to 212 °C. In addition, the IC50 with sodium channel was in the range of 1 to 100 nM. Further, the inhibition at 10 µM at CYP3A4 was less than 50%.
